The supplement of paper PMC10307832

Assays:
Test in all cases: relative viability (nuclei count vs DMSO), 5 days (fraction); higher = more cells survive
LCLC-103H = tested on: LCLC-103H
Summary of the method: (§1)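 One day after seeding in 1536-well plates, lung cancer cell lines were dosed by pin tool. Dosing was either single-drug or a fixed anchor-drug dose plus five library-drug doses (not always all listed) in √10 steps. After 5 days, nuclei were stained in one fix-and-stain step and counted on 4× images, and relative viability is the nuclei count of treated wells over that of vehicle wells, given as the median of duplicate plates.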

NCI-H358 = tested on: NCI-H358
Summary of the method: as §1

NCI-H2347 = tested on: NCI-H2347
Summary of the method: as §1

LU99A = tested on: LU99A
Summary of the method: as §1

NCI-H520 = tested on: NCI-H520
Summary of the method: as §1

ABC-1 = tested on: ABC-1
Summary of the method: as §1

NCI-H2126 = tested on: NCI-H2126
Summary of the method: as §1

ChaGo-K-1 = tested on: ChaGo-K-1
Summary of the method: as §1

NCI-H1944 = tested on: NCI-H1944
Summary of the method: as §1

NCI-H1395 = tested on: NCI-H1395
Summary of the method: as §1

NCI-H322M = tested on: NCI-H322M
Summary of the method: as §1

SK-LU-1 = tested on: SK-LU-1
Summary of the method: as §1

RERF-LC-KJ = tested on: RERF-LC-KJ
Summary of the method: as §1

NCI-H1755 = tested on: NCI-H1755
Summary of the method: as §1

HCC-827 = tested on: HCC-827
Summary of the method: as §1

NCI-H1666 = tested on: NCI-H1666
Summary of the method: as §1

NCI-H1793 = tested on: NCI-H1793
Summary of the method: as §1

CAL-12T = tested on: CAL-12T
Summary of the method: as §1

LXF-289 = tested on: LXF-289
Summary of the method: as §1

NCI-H3122 = tested on: NCI-H3122
Summary of the method: as §1

HCC-44 = tested on: HCC-44
Summary of the method: as §1

SMILES: CCNC(=O)c1noc(-c2cc(C(C)C)c(O)cc2O)c1-c1ccc(CN2CCOCC2)cc1 [Luminespib] + Cc1cc(Nc2cc(N3CCN(C)CC3)nc(Sc3ccc(NC(=O)C4CC4)cc3)n2)n[nH]1 [Tozasertib] (partner 0.1 µM)
- relative viability (LCLC-103H; first compound 0.002 µM): 0.47
- relative viability (LCLC-103H; first compound 0.006325 µM): 0.455
- relative viability (LCLC-103H; first compound 0.02 µM): 0.44
- relative viability (LCLC-103H; first compound 0.06325 µM): 0.497
- relative viability (LCLC-103H; first compound 0.2 µM): 0.308
- relative viability (NCI-H358; first compound 0.002 µM): 0.0938
- relative viability (NCI-H358; first compound 0.006325 µM): 0.115
- relative viability (NCI-H358; first compound 0.02 µM): 0.104
- relative viability (NCI-H358; first compound 0.06325 µM): 0.0661
- relative viability (NCI-H358; first compound 0.2 µM): 0.0636
- relative viability (NCI-H2347; first compound 0.002 µM): 0.592
- relative viability (NCI-H2347; first compound 0.006325 µM): 0.407
- relative viability (NCI-H2347; first compound 0.02 µM): 0.471
- relative viability (NCI-H2347; first compound 0.06325 µM): 0.269
- relative viability (NCI-H2347; first compound 0.2 µM): 0.198
- relative viability (LU99A; first compound 0.002 µM): 0.261
- relative viability (LU99A; first compound 0.006325 µM): 0.277
- relative viability (LU99A; first compound 0.02 µM): 0.252
- relative viability (LU99A; first compound 0.06325 µM): 0.176
- relative viability (LU99A; first compound 0.2 µM): 0.139
- relative viability (NCI-H520; first compound 0.002 µM): 0.404
- relative viability (NCI-H520; first compound 0.006325 µM): 0.449
- relative viability (NCI-H520; first compound 0.02 µM): 0.345
- relative viability (NCI-H520; first compound 0.06325 µM): 0.195
- relative viability (NCI-H520; first compound 0.2 µM): 0.221
- relative viability (ABC-1; first compound 0.002 µM): 0.196
- relative viability (ABC-1; first compound 0.006325 µM): 0.21
- relative viability (ABC-1; first compound 0.02 µM): 0.139
- relative viability (ABC-1; first compound 0.06325 µM): 0.173
- relative viability (ABC-1; first compound 0.2 µM): 0.14
- relative viability (NCI-H2126; first compound 0.002 µM): 0.844
- relative viability (NCI-H2126; first compound 0.006325 µM): 0.879
- relative viability (NCI-H2126; first compound 0.02 µM): 0.661
- relative viability (NCI-H2126; first compound 0.06325 µM): 0.5
- relative viability (NCI-H2126; first compound 0.2 µM): 0.264
- relative viability (ChaGo-K-1; first compound 0.002 µM): 0.23
- relative viability (ChaGo-K-1; first compound 0.006325 µM): 0.228
- relative viability (ChaGo-K-1; first compound 0.02 µM): 0.159
- relative viability (ChaGo-K-1; first compound 0.06325 µM): 0.186
- relative viability (ChaGo-K-1; first compound 0.2 µM): 0.201
- relative viability (NCI-H1944; first compound 0.002 µM): 0.253
- relative viability (NCI-H1944; first compound 0.006325 µM): 0.256
- relative viability (NCI-H1944; first compound 0.02 µM): 0.22
- relative viability (NCI-H1944; first compound 0.06325 µM): 0.197
- relative viability (NCI-H1944; first compound 0.2 µM): 0.22
- relative viability (NCI-H1395; first compound 0.002 µM): 0.783
- relative viability (NCI-H1395; first compound 0.006325 µM): 0.693
- relative viability (NCI-H1395; first compound 0.02 µM): 0.676
- relative viability (NCI-H1395; first compound 0.06325 µM): 0.386
- relative viability (NCI-H1395; first compound 0.2 µM): 0.322
- relative viability (NCI-H322M; first compound 0.002 µM): 0.423
- relative viability (NCI-H322M; first compound 0.006325 µM): 0.458
- relative viability (NCI-H322M; first compound 0.02 µM): 0.422
- relative viability (NCI-H322M; first compound 0.06325 µM): 0.331
- relative viability (NCI-H322M; first compound 0.2 µM): 0.301
- relative viability (SK-LU-1; first compound 0.002 µM): 0.373
- relative viability (SK-LU-1; first compound 0.006325 µM): 0.313
- relative viability (SK-LU-1; first compound 0.02 µM): 0.292
- relative viability (SK-LU-1; first compound 0.06325 µM): 0.122
- relative viability (SK-LU-1; first compound 0.2 µM): 0.114
- relative viability (RERF-LC-KJ; first compound 0.002 µM): 0.558
- relative viability (RERF-LC-KJ; first compound 0.006325 µM): 0.501
- relative viability (RERF-LC-KJ; first compound 0.02 µM): 0.518
- relative viability (RERF-LC-KJ; first compound 0.06325 µM): 0.211
- relative viability (RERF-LC-KJ; first compound 0.2 µM): 0.208
- relative viability (NCI-H1755; first compound 0.002 µM): 0.585
- relative viability (NCI-H1755; first compound 0.006325 µM): 0.592
- relative viability (NCI-H1755; first compound 0.02 µM): 0.646
- relative viability (NCI-H1755; first compound 0.06325 µM): 0.214
- relative viability (NCI-H1755; first compound 0.2 µM): 0.192
- relative viability (HCC-827; first compound 0.002 µM): 0.425
- relative viability (HCC-827; first compound 0.006325 µM): 0.465
- relative viability (HCC-827; first compound 0.02 µM): 0.398
- relative viability (HCC-827; first compound 0.06325 µM): 0.41
- relative viability (HCC-827; first compound 0.2 µM): 0.193
- relative viability (NCI-H1666; first compound 0.002 µM): 0.64
- relative viability (NCI-H1666; first compound 0.006325 µM): 0.583
- relative viability (NCI-H1666; first compound 0.02 µM): 0.601
- relative viability (NCI-H1666; first compound 0.06325 µM): 0.732
- relative viability (NCI-H1666; first compound 0.2 µM): 0.538
- relative viability (NCI-H1793; first compound 0.002 µM): 0.345
- relative viability (NCI-H1793; first compound 0.006325 µM): 0.346
- relative viability (NCI-H1793; first compound 0.02 µM): 0.296
- relative viability (NCI-H1793; first compound 0.06325 µM): 0.307
- relative viability (NCI-H1793; first compound 0.2 µM): 0.13
- relative viability (CAL-12T; first compound 0.002 µM): 0.361
- relative viability (CAL-12T; first compound 0.006325 µM): 0.319
- relative viability (CAL-12T; first compound 0.02 µM): 0.211
- relative viability (CAL-12T; first compound 0.06325 µM): 0.113
- relative viability (CAL-12T; first compound 0.2 µM): 0.107
- relative viability (LXF-289; first compound 0.002 µM): 0.225
- relative viability (LXF-289; first compound 0.006325 µM): 0.216
- relative viability (LXF-289; first compound 0.02 µM): 0.222
- relative viability (LXF-289; first compound 0.06325 µM): 0.141
- relative viability (LXF-289; first compound 0.2 µM): 0.0935
- relative viability (NCI-H3122; first compound 0.002 µM): 0.451
- relative viability (NCI-H3122; first compound 0.006325 µM): 0.39
- relative viability (NCI-H3122; first compound 0.02 µM): 0.106
- relative viability (NCI-H3122; first compound 0.06325 µM): 0.0834
- relative viability (NCI-H3122; first compound 0.2 µM): 0.0832
- relative viability (HCC-44; first compound 0.002 µM): 1.01
- relative viability (HCC-44; first compound 0.006325 µM): 0.766
- relative viability (HCC-44; first compound 0.02 µM): 0.99
- relative viability (HCC-44; first compound 0.06325 µM): 0.169
- relative viability (HCC-44; first compound 0.2 µM): 0.159
